pEC50: −log10 of the molar value.
system: FSK-4 cells; test: Assay (I): Glucose utilisation in a human epithelia cell line (FSK4 cells), D-(6-3H(N))-glucose; format: cell-based; conditions: 24 hours incubation, Hill equation, read-out: GlucosFSK4 EC50
Experimental: Assay (I): Glucose Utilisation in a Human Epithelia Cell Line (FSK4 cells)
The ^3H-proton will first be released in the TCA cyclus and transported to the respiratory chain where it will be incorporated into water. The water is thereafter separated from the D-(6-^3H(N))-glucose by evaporation.
FSK-4 cells obtained from ATCC (Maryland, USA), are cultured in growth medium (McCoy's medium with the following addition 100 units/ml penicillin and streptomycin and 10% FCS (fetal calf serum)) at 37° C. and 5% CO2.
The cells are then incubated for another 24 hours at 37° C. and 5% CO2.
The half maximal concentration (EC50) and maximal efficacy (Emax) are calculated using the Hill equation in GraphPad Prism 3.0 (GraphPad software, Inc.). […] From the percentage increase in glucose utilisation the linear slope is calculated using the Michaelis-Menten equation.

SMILES | pEC50
CC(C)(C)c1cc(/C=C(\C#N)S(=O)(=O)c2ccccn2)cc(C(C)(C)C)c1O [Example 3, (E)-3-(3,5-Di-tert!-butyl-4-hydroxy-phenyl)-2-(pyridine-2-sulfonyl)-acrylonitrile] | 5.05
N#C/C(=C\c1ccc(O)c([N+](=O)[O-])c1)S(=O)(=O)c1ccc(Cl)cc1 [Example 4, (E)-2-(4-Chloro-benzenesulfonyl)-3-(4-hydroxy-3-nitro-phenyl)-acrylonitrile] | < 5.00
Cn1ccnc1S(=O)(=O)/C(C#N)=C/c1cc(C(C)(C)C)c(O)c(C(C)(C)C)c1 [Example 6, (E)-3-(3,5-Di-tert-butyl-4-hydroxy-phenyl)-2-(1-methyl-1H-imidazole-2-sulfonyl)-acrylonitrile] | 5.08
C/C(=C(/C#N)S(=O)(=O)c1ccc(Cl)cc1)c1cc(C(C)(C)C)c(O)c(C(C)(C)C)c1 [Example 7, (E/Z)-2-(4-Chloro-benzenesulfonyl)-3-(3,5-di-tert-butyl-4-hydroxy-phenyl)-but-2-enenitrile] | 5.00
CC(C)(C)c1cc(/C=C(\C#N)S(=O)(=O)c2ccc(OC(F)(F)F)cc2)cc(C(C)(C)C)c1O [Example 11, (E)-3-(3,5-Di-tert-butyl-4-hydroxy-phenyl)-2-(4-trifluoromethoxy-benzenesulfonyl)-acrylonitrile] | 5.66
CC(C)(C)c1cc(/C=C(\C#N)S(=O)(=O)c2ccc(Cl)cc2)cc([N+](=O)[O-])c1O [Example 12, (E)-3-(3-tert-Butyl-4-hydroxy-5-nitro-phenyl)-2-(4-chloro-benzenesulfonyl)-acrylonitrile] | 5.22
COCCN(CCOC)C(=O)c1ccc(S(=O)(=O)/C(C#N)=C/c2cc(C(C)(C)C)c(O)c(C(C)(C)C)c2)cc1 [Example 13] | 5.40
CN(C)C(=O)c1ccc(S(=O)(=O)/C(C#N)=C/c2cc(C(C)(C)C)c(O)c(C(C)(C)C)c2)cc1 [Example 14] | 5.64
CC(O)CN(CC(C)O)C(=O)c1ccc(S(=O)(=O)/C(C#N)=C/c2cc(C(C)(C)C)c(O)c(C(C)(C)C)c2)cc1 (stereo not shown) [Example 15] | 5.00
CN1CCN(C(=O)c2ccc(S(=O)(=O)/C(C#N)=C/c3cc(C(C)(C)C)c(O)c(C(C)(C)C)c3)cc2)CC1 [Example 16, (E)-3-(3,5-Di-tert-butyl-4-hydroxy-phenyl)-2-[4-(4-methyl-piperazine-1-carbonyl)-benzenesulfonyl]-acrylonitrile] | 5.49
CC(C)(C)c1cc(/C=C(\C#N)S(=O)(=O)c2ccc(C(=O)NCCO)cc2)cc(C(C)(C)C)c1O [Example 17] | 5.13
CC(C)(C)c1cc(/C=C(\C#N)S(=O)(=O)c2ccc(C(=O)N3CCOCC3)cc2)cc(C(C)(C)C)c1O [Example 19, (E)-3-(3,5-Di-tert-butyl-4-hydroxy-phenyl)-2-[4-(morpholine-4-carbonyl)-benzenesulfonyl]-acrylonitrile] | 5.29
CC(C)(C)c1cc(/C=C(\C#N)S(=O)(=O)c2ccc(N)cc2)cc(C(C)(C)C)c1O [Example 20, (E)-2-(4-Amino-benzenesulfonyl)-3-(3,5-di-tert-butyl-4-hydroxy-phenyl)-acrylonitrile] | 5.55
CC(C)(C)c1cc(/C=C(\C#N)S(=O)(=O)c2ccc(C(=O)N(CCO)CCO)cc2)cc(C(C)(C)C)c1O [Example 26] | 5.43
CC1COCC(C)N1C(=O)c1ccc(S(=O)(=O)/C(C#N)=C/c2cc(C(C)(C)C)c(O)c(C(C)(C)C)c2)cc1 (stereo not shown) [Example 27, 3-(3,5-Di-tert-butyl-4-hydroxy-phenyl)-2-[4-(3,5-dimethyl-morpholine-4-carbonyl)-benzenesulfonyl]-acrylonitrile] | 5.46
CC(C)(C)c1ccc(S(=O)(=O)/C(C#N)=C/c2cc(C(C)(C)C)c(O)c(C(C)(C)C)c2)cc1 [Example 29, 2-(4-tert-Butyl-benzenesulfonyl)-3-(3,5-di-tert-butyl-4-hydroxy-phenyl)-acrylonitrile] | 5.54
CC(C)(C)c1cc(/C=C(\C#N)S(=O)(=O)Cc2ccco2)cc(C(C)(C)C)c1O [Example 31, 3-(3,5-Di-tert-butyl-4-hydroxy-phenyl)-2-(furan-2-ylmethanesulfonyl)-acrylonitrile] | 5.70
CC(C)c1ccc(S(=O)(=O)/C(C#N)=C/c2cc(C(C)(C)C)c(O)c(C(C)(C)C)c2)cc1 [Example 34, 3-(3,5-Di-tert-butyl-4-hydroxy-phenyl)-2-(4-isopropyl-benzenesulfonyl)-acrylonitrile] | 5.64
CC(C)(C)c1cc(C=C(C#N)S(=O)(=O)c2cc(C(C)(C)C)c(O)c(C(C)(C)C)c2)cc(C(C)(C)C)c1O [Example 35, 2-(3,5-Di-tert-butyl-4-hydroxy-benzenesulfonyl)-3-(3,5-di-tert-butyl-4-hydroxy-phenyl)-acrylonitrile] | 5.48
CC(C)(C)c1cc(/C=C(\C#N)S(=O)(=O)c2ccccc2C(=O)O)cc(C(C)(C)C)c1O [Example 42] | 5.05
CC(C)(C)c1cc(/C=C(\C#N)S(=O)(=O)c2ccccc2C(=O)N2CCOCC2)cc(C(C)(C)C)c1O [Example 44, 3-(3,5-Di-tert-butyl-4-hydroxy-phenyl)-2-[2-(morpholine-4-carbonyl)-benzenesulfonyl]-acrylonitrile] | 5.52
CC(C)(C)c1cc(/C=C(\C#N)S(=O)(=O)c2cccc(C(=O)N3CCOCC3)c2)cc(C(C)(C)C)c1O [Example 45, 3-(3,5-Di-tert-butyl-4-hydroxy-phenyl)-2-[3-(morpholine-4-carbonyl)-benzenesulfonyl]-acrylonitrile] | 5.52
CC(C)(C)c1cc(/C=C(\C#N)S(=O)(=O)c2ccc(C3CC=CO3)cc2)cc(C(C)(C)C)c1O (stereo not shown) [Example 49, 3-(3,5-Di-tert-butyl-4-hydroxy-phenyl)-2-[4-(2,3-dihydro-furan-2-yl)-benzenesulfonyl]-acrylonitrile] | 5.66

These reach a higher pEC50. Values come first.

pEC50 | SMILES
5.77 | CC1CN(C(=O)c2ccc(S(=O)(=O)/C(C#N)=C/c3cc(C(C)(C)C)c(O)c(C(C)(C)C)c3)cc2)CC(C)O1 (stereo not shown) [Example 18, (E)-3-(3,5-Di-tert-butyl-4-hydroxy-phenyl)-2-[4-(2,6-dimethyl-morpholine-4-carbonyl)-benzenesulfonyl]-acrylonitrile]
5.82 | COc1ccc(S(=O)(=O)/C(C#N)=C/c2cc(C(C)(C)C)c(O)c(C(C)(C)C)c2)cc1OC [Example 48, 3-(3,5-Di-tert-butyl-4-hydroxy-phenyl)-2-(3,4-dimethoxy-benzenesulfonyl)-acrylonitrile]
5.85 | CC(C)(C)c1cc(/C=C(\C#N)S(=O)(=O)c2ccc([N+](=O)[O-])cc2)cc(C(C)(C)C)c1O [Example 9, (E)-3-(3,5-Di-tert-butyl-4-hydroxy-phenyl)-2-(4-nitro-benzenesulfonyl)-acrylonitrile]
5.92 | CC(C)(C)c1cc(/C=C(\C#N)S(=O)(=O)c2cccs2)cc(C(C)(C)C)c1O [Example 23, (E)-3-(3,5-Di-tert-butyl-4-hydroxy-phenyl)-2-(thiophene-2-sulfonyl)-acrylonitrile]
5.96 | Cc1ccc(S(=O)(=O)/C(C#N)=C/c2cc(C(C)(C)C)c(O)c(C(C)(C)C)c2)cc1 [Example 33, 3-(3,5-Di-tert-butyl-4-hydroxy-phenyl)-2-(toluene-4-sulfonyl)-acrylonitrile]
6.00 | CC(C)(C)c1cc(/C=C(\C#N)S(=O)(=O)c2cccc3ccccc23)cc(C(C)(C)C)c1O [Example 30, 3-(3,5-Di-tert-butyl-4-hydroxy-phenyl)-2-(naphthalene-1-sulfonyl)-acrylonitrile]
6.00 | COc1ccc(S(=O)(=O)/C(C#N)=C/c2cc(C(C)(C)C)c(O)c(C(C)(C)C)c2)cc1 [Example 46, 3-(3,5-Di-tert-butyl-4-hydroxy-phenyl)-2-(4-methoxy-benzenesulfonyl)-acrylonitrile]
6.05 | CC(C)(C)c1cc(/C=C(\C#N)S(=O)(=O)c2ccc(Cl)cn2)cc(C(C)(C)C)c1O [Example 41, 2-(5-Chloro-pyridine-2-sulfonyl)-3-(3,5-di-tert-butyl-4-hydroxy-phenyl)-acrylonitrile]
6.10 | COc1cccc(S(=O)(=O)/C(C#N)=C/c2cc(C(C)(C)C)c(O)c(C(C)(C)C)c2)c1 [Example 47, 3-(3,5-Di-tert-butyl-4-hydroxy-phenyl)-2-(3-methoxy-benzenesulfonyl)-acrylonitrile]
6.15 | CC(C)(C)c1cc(/C=C(\C#N)S(=O)(=O)Cc2ccc(Cl)cc2)cc(C(C)(C)C)c1O [Example 24, (E)-2-(4-Chloro-phenylmethanesulfonyl)-3-(3,5-di-tert-butyl-4-hydroxy-phenyl)-acrylonitrile]
6.15 | CC(C)(C)c1cc(/C=C(\C#N)S(=O)(=O)c2ccc(S(C)(=O)=O)cc2)cc(C(C)(C)C)c1O [Example 38, 3-(3,5-Di-tert-butyl-4-hydroxy-phenyl)-2-(4-methanesulfonyl-benzenesulfonyl)-acrylonitrile]
6.22 | CC(C)(C)c1cc(/C=C(\C#N)S(=O)(=O)c2ccccc2OC(F)(F)F)cc(C(C)(C)C)c1O [Example 40, 3-(3,5-Di-tert-butyl-4-hydroxy-phenyl)-2-(2-trifluoromethoxy-benzenesulfonyl)-acrylonitrile]
6.30 | CC(C)(C)c1cc(/C=C(\C#N)S(=O)(=O)c2cccc(OC(F)(F)F)c2)cc(C(C)(C)C)c1O [Example 39, 3-(3,5-Di-tert-butyl-4-hydroxy-phenyl)-2-(3-trifluoromethoxy-benzenesulfonyl)-acrylonitrile]
6.40 | CC(C)(C)c1cc(/C=C(\C#N)S(=O)(=O)/C(C#N)=C/c2cc(C(C)(C)C)c(O)c(C(C)(C)C)c2)cc(C(C)(C)C)c1O [Example 22]
